Assay results published in patent US20210403415A1, “COMPOUNDS AND METHODS TO ATTENUATE TUMOR PROGRESSION AND METASTASIS” (THE TRUSTEES OF INDIANA UNIVERSITY, priority 2018, published 2021).
Where two headings read alike, the source gives them in different places. Blank lines part the entries; values can stand above or below the compound they belong to.

Key:
TEAD2 binding to Yap1 = target: T1, TEAD2 binding to Yap1 (Homo sapiens, UniProt Q15562); experiment: Fluorescence polarization, HIS-TEAD2 with FAM-Yap60-99 peptide; settings: 24 h at 4° C.
T1 construct: TEAD2 (217-447) was expressed as N-terminal HIS-fusion protein; made in house; host or cells: E. coli BL-21 (DE3), pET-28a
Description: (§1) GST-TEAD4, GST-TEAD4 Cys367Ser mutant or HIS-TEAD2 interaction with Yap1 was investigated using a fluorescently-labeled peptide (FAM-Yap60-99), consisting of FAM-labeled TEAD-binding peptide fragment of Yap1 (FAM-[…] TVPMCLRKLPASFCKPP), which has a disulfide bridge (American Peptide, Sunnyvale, Calif.). Addition of FAM-Yap60-99 to the TEAD was followed by measurement of changes in polarization. 40 μL of 125 nM GST-TEAD4 WT or GST-TEAD4 Cys367Ser in assay buffer (PBS with 0.01% v/v Triton-X100) or 40 μL of 64 nM HIS-TEAD2 was added to a 384-well black polystyrene plate (Cat. No. 262260; Nunc, Roskilde, Denmark) and incubated with 5 μL of […] serially diluted compounds in assay buffer supplemented with 20% v/v DMSO for 24 h at 4° C. Finally, 5 μL of 160 nM FAM-Yap60-99 peptide was added, the plate centrifuged, and the polarization was measured on an Envision Multilabel Plate Reader (PerkinElmer, Waltham, Mass.) using a filter set with excitation and emission wavelengths of 485 and 535 nm, respectively. Percent inhibition was calculated as relative to a minimum inhibition control, which is without compound, and a maximum inhibition control, which is without a TEAD.

TEAD4.Yap1 interaction [1] = target: T2, TEAD4.Yap1 interaction (Homo sapiens, UniProt Q15561); experiment: Fluorescence polarization, GST-TEAD4 with FAM-Yap60-99 peptide; type: binding; design: TEAD4 (217-434), TEAD4 (217-434) Cys367Ser mutant and Yap1 (Full-length) were expressed as GST-fusion proteins; made in house; host or cells: E. coli BL-21 (DE3), pGEX-6P-1; settings: for inhibition / maximum inhibition of TEAD4.Yap1 interaction: 24 h incubation at 4° C.; for t1/2^∞ (half-life of inactivation): corresponding to kinact; for inhibition of TEAD4.Yap1 interaction: FP assay, 24 h at 4° C.
Description: as §1
For the determination of the inhibition efficiency kinact/K1, the protein compound incubation time was varied between […], prior to the addition of the FAM-Yap60-99 peptide and fluorescence polarization measurements. The progressive decrease in TEAD activities were plotted against time for all 10 concentrations ([…]) of the compounds and the observed rate of inhibition (kobs) was calculated by fitting a simple exponential function.
The observed rate of inhibition was then plotted against the concentration of the compound and a […] function kobs=kinact[Inhibitor]/K1+[Inhibitor] was fitted to determine the kinact and K1 values.

TEAD4.Yap1 interaction [2] = target: T2, TEAD4.Yap1 interaction; experiment: as above; type: binding; design: TEAD4 (217-434), TEAD4 (217-434) Cys367Ser mutant and Yap1 (Full-length) were expressed as GST-fusion proteins; made in house; host or cells: E. coli BL-21 (DE3), pGEX-6P-1; settings: 0.5, 6, 24, 48 h incubation at 4° C., 0.1-100 μM
TEAD4 [3] = target: T3, TEAD4 (Homo sapiens, UniProt Q15561); experiment: Whole protein ESI mass spectrometry, adduct formation; type: binding; design: TEAD4 (217-434), TEAD4 (217-434) Cys367Ser mutant and Yap1 (Full-length) were expressed as GST-fusion proteins; GST (N, cleaved yes); made in house; host or cells: E. coli BL-21 (DE3), pGEX-6P-1; settings: for covalent adduct formation with TEAD4 / adduct with TEAD4: 10 μM TEAD4, 200 μM compound, 24 h at 4° C.
Description: (§2) The samples were centrifuged at 20,000×g for […] to remove precipitants before being injected into an empty column on an Agilent 1200 liquid chromatography system (Agilent, Santa Clara, Calif.), using 80% Buffer A (H2O, 5 mM NH4OAc) and 20% Buffer B (ACN, 5 mM NH4OAc), and the masses were detected on an Agilent 6520 Accurate Mass Q-TOF.
It was determined whether a covalent bond formed between inventive compounds and TEAD4. […] The covalent adduct formation by compound 2 was relatively fast (FIG. 3G), reaching nearly 100% adduct formation after 30 min incubation with TEAD4. Because the rate of inhibition developed over a longer timescale (FIG. 3C), compound 2 is proposed to induce a slow conformational change in TEAD4 that prevents its interaction with Yap1. To rule out the possibility that compound 2 induces slow aggregation of TEAD4, and not the proposed slow conformational change, GST-TEAD4 was incubated with DMSO compound 2 for 24 h at 4° C., followed by injection into an SEC column (FIG. 3H). […] A slight increase in dimer formation for the TEAD4 sample incubated with compound 2 occurred compared to the sample incubated with DMSO. […] Furthermore, it is highly unlikely that Cys-367 oxidation was responsible for the lack of 100% inhibition at longer times since it has been shown that covalent bond formation is rapid and complete within less than an hour.
Target sequence in this assay (Q15561 217-434): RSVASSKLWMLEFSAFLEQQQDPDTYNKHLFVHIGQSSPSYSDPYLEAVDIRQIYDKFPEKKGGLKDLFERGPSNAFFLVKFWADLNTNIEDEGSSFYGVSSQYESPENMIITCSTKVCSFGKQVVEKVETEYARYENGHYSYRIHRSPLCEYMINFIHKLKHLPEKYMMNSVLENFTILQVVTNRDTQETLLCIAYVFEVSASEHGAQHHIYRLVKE

TEAD4 [4] = target: T3, TEAD4; experiment: Covalent streptavidin pull down of myc-TEAD4 from HEK293 cell lysates; type: cell-based; design: expressed in transfected cells; host or cells: HEK293; settings: added to cell lysates
Description: HEK293 cells transfected with the myc-TEAD4 construct were grown for 48 h and then treated with DMSO or with 25 μM of compound 2 for an additional 48 h. Cells were then harvested in lysis buffer (50 mM Tris-HCl, pH 7.3, 150 mM NaCl, 0.5 mM EDTA, 1% Triton X-100, PhosSTOP phosphatase inhibitor cocktail, and EDTA-free protease inhibitors cocktail). Cell lysates containing 2 mg of protein were incubated with the indicated compounds or DMSO for 24 h. Extracts were then incubated with Dynabeads M-280 Streptavidin (Sigma-Aldrich) for 2 h at 4° C. Dynabeads were then washed and bound proteins were denatured and eluted according to the manufacturer's instructions. Relative levels of myc-TEAD4 from each complex were measured by immunoblot analysis with the anti-c-Myc antibody (1:5,000, Sigma-Aldrich).
Target sequence in this assay (Q15561 whole entry, the tested form may be a part): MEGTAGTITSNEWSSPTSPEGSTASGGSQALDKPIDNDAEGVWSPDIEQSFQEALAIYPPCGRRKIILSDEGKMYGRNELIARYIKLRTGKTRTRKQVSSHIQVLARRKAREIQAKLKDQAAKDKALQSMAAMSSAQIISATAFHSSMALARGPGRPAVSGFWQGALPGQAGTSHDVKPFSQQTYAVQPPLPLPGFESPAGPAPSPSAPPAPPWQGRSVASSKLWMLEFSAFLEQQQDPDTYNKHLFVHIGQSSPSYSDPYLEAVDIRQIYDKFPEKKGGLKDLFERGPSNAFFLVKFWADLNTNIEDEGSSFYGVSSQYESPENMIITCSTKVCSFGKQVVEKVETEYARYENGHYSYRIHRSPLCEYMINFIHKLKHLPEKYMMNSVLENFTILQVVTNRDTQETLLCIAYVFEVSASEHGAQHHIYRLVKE

[5] = tested on: patient-derived GBM43 glioblastoma spheroids; experiment: GBM43 spheroid viability (Alamar blue); type: cell-based, human; settings: Homo sapiens; three-dimensional spheroids; read-out: EC50, inhibition of GBM43 spheroid growth
Description: Early-passage GBM43 cells were cultured in ultralow adherence plates (Corning Inc.) at 1 to 2×10^3 cells/mL in DMEM supplemented with 1% […] (Invitrogen), 2% B27 (Invitrogen), 25 ng/mL epidermal growth factor (EGF, 25 ng/mL fibroblast growth factor (FGF) (R&D Systems, Inc.), […], 2 ng/mL platelet growth factor, and 100 ng/mL each of penicillin and streptomycin (Invitrogen Inc.). Individual cells were recovered from spheres by incubation with Accutase (Sigma-Aldrich) for 10-15 minutes. Cells (50-100/well) were then seeded in fresh sphere-forming media in 96-well plates. After 2-3 days, Neurospheres containing 6 to 8 cells were treated with compounds 1, 2, and 5.
HEK-293 were cultured in DMEM with glutamine (Cellgro, Manassas, Va.) supplemented with 10% FBS and 1% penicillin/streptomycin in a 5% CO2 atmosphere at 37° C. Tumors were expanded by passage in the flank of NOD/SCIDγnull mice. To generate GBM43 cell lines, tumors were harvested, disaggregated, and maintained in 2.5% FBS for 14 days on Matrigel-coated plates (BD Biosciences) to remove murine fibroblasts. In-vitro GBM43 cell lines were propagated in DMEM with 10% FBS for no more than 7 passages. Cell line identity was confirmed by DNA fingerprint analysis (IDEXX BioResearch) for species and baseline short-tandem repeat analysis testing. GBM43 spheroids were generated by plating early-passage cells at 2.5×10^4 cells per well in 96-well ultralow attachment plates (Corning Inc.) in DMEM/F12 (1:1; GIBCO) supplemented with 2% B27 supplement (GIBCO), 20 ng/mL epidermal growth factor (EGF), and 20 ng/mL fibroblast growth factor (FGF) (Peprotech) for 2 days. The spheroids were then treated with compounds 1, 2, and 5 and growth analyzed by Alamar blue staining.

TEAD4 Cys367Ser mutant = target: T4, TEAD4 Cys367Ser mutant (Homo sapiens, UniProt Q15561, C367S); experiment: Whole protein ESI mass spectrometry, adduct formation with mutant; type: binding; settings: 5 μM mutant, 12.5, 50, 200 μM at 4° C., 24 h
T4 construct: TEAD4 (217-434) Cys367Ser mutant and Yap1 (Full-length) were expressed as GST-fusion proteins; made in house; host or cells: E. coli BL-21 (DE3), pGEX-6P-1
Description: as §2
FIG. 4A illustrates analysis by ESI mass spectrometry after 10 μM TEAD4 Cys367Ser mutant was incubated with 200 μM compound for 24 h at 4° C. FIG. 4B illustrates measurement of fluorescence polarization due to binding when increasing concentration of TEAD4 Cys367Ser mutant was mixed with 16 nM FAM-Yap60-99 peptide (mean±s.d.; n=3). FIG. 4C illustrates measurement of fluorescence polarization due to binding when TEAD4 Cys367Ser mutant was incubated with increasing concentration of compounds for 24 h at 4° C. followed by addition of FAM-Yap60-99 (mean±s.d.; n=3).

[6] = as tested described herein, read-out: EC50 in the EC50 assay

T2 sequence (Q15561 217-434): as the sequence (Q15561 217-434) above
T1 sequence (Q15562 217-447): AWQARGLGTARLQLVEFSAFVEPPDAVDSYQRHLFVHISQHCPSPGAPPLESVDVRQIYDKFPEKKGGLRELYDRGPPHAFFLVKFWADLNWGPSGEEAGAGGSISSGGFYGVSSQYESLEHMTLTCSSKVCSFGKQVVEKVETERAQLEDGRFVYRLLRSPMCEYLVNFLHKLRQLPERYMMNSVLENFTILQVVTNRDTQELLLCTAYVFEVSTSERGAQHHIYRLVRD
T4 sequence (Q15561 217-434 C367S): as the sequence (Q15561 217-434) above, with C151S counted along it

- inhibition / maximum inhibition of TEAD4.Yap1 interaction (TEAD4.Yap1 interaction [1]): 31%
- t1/2^∞ (half-life of inactivation) (TEAD4.Yap1 interaction [1]): 67.3 h
- kinact (TEAD4.Yap1 interaction [2]; read-out: maximum rate of inactivation (kinact) (converted)): 2.78e-06 s⁻¹
- covalent adduct formation with TEAD4 (TEAD4 [3]): formed single adducts
SMILES: COCCOc1cccc(Nc2ccccc2C(=O)CCl)c1 [Compound 4, 2-chloro-1-(2-((3-(2-methoxyethoxy)phenyl)amino)phenyl)ethanone]
- inhibition of TEAD2 binding to Yap1 (TEAD2 binding to Yap1): much weaker inhibitors of TEAD2 compared to TEAD4
- apparent EC50, inhibition of TEAD4.Yap1 protein-protein interaction (TEAD4.Yap1 interaction [1]; 24 h incubation with TEAD4 at 4° C.): substantially lower (nearly an order of magnitude) than its parent compound 2

- inhibition / maximum inhibition of TEAD4.Yap1 interaction (TEAD4.Yap1 interaction [1]): 51%
- EC50 (TEAD4.Yap1 interaction [1]; 24 h incubation with TEAD4 at 4° C., read-out: apparent EC50, inhibition of TEAD4.Yap1 protein-protein interaction): 2.3 ± 0.8 µM
- t1/2^∞ (half-life of inactivation) (TEAD4.Yap1 interaction [1]): 20 h
- kinact (TEAD4.Yap1 interaction [2]; read-out: rate of inactivation kinact (converted)): 9.44e-06 s⁻¹
- covalent adduct formation with TEAD4 (TEAD4 [3]): formed single adducts
SMILES: COc1ccc(C(=O)CCl)c(Nc2cccc(C(F)(F)F)c2)c1 [Compound 6, 2-chloro-1-(4-methoxy-2-((3-(trifluoromethyl)phenyl)amino)phenyl)ethanone]
- inhibition of TEAD2 binding to Yap1 (TEAD2 binding to Yap1): much weaker inhibitors of TEAD2 compared to TEAD4

- inhibition of TEAD4.Yap1 interaction (TEAD4.Yap1 interaction [1]): lack of TEAD4 inhibition
- adduct with TEAD4 (TEAD4 [3]): 100%
- covalent adduct formation with TEAD4 (TEAD4 [3]): formed single adducts
SMILES: O=C(CCl)c1ccccc1Nc1ccc(-c2cccs2)cc1 [Compound 7, 2-chloro-1-(2-((4-(thiophen-2-yl)phenyl)amino)phenyl)ethanone]

- inhibition of TEAD4.Yap1 interaction (TEAD4.Yap1 interaction [1]): lack of TEAD4 inhibition
- adduct with TEAD4 (TEAD4 [3]): 100%
- covalent adduct formation with TEAD4 (TEAD4 [3]): formed single adducts
SMILES: O=C(CCl)c1ccccc1Nc1cccc(-c2cccs2)c1 [Compound 8, 2-chloro-1-(2-((3-(thiophen-2-yl)phenyl)amino)phenyl)ethanone]

- TEAD4 in streptavidin pull-down, immunoblot (TEAD4 [4]): TEAD4 was specifically detected
SMILES: O=C(CCCCC1SCC2NC(=O)NC21)NCCOCCOCCCCCOc1cccc(Nc2ccccc2C(=O)CCl)c1 (stereo not shown) [Compound 9, N-(2-(2-((5-(3-((2-(2-chloroacetyl)phenyl)amino)phenoxy)pentyl)oxy)ethoxy)ethyl)-5-(2-oxohexahydro-1H-thieno[3,4-d]imidazol-4-yl)pentanamide]

- inhibition of TEAD4.Yap1 interaction (TEAD4.Yap1 interaction [1]): minimal inhibition
SMILES: O=C(CF)c1ccccc1Nc1cccc(C(F)(F)F)c1 [Example 10, 2-fluoro-1-(2-((3-(trifluoromethyl)phenyl)amino)phenyl) ethanone]

- max (inhibition) in the EC50 assay (TEAD4.Yap1 interaction [1]; as tested described herein): 50%
- EC50 (TEAD4.Yap1 interaction [1]; [6]): 11.7 µM
SMILES: O=C(CCl)Nc1ccccc1Nc1cccc(C(F)(F)F)c1 [Example 11, 2-chloro-N-(2-((3-(trifluoromethyl)phenyl)amino)phenyl) acetamide]

- max (inhibition) in the EC50 assay (TEAD4.Yap1 interaction [1]; as tested described herein): 23%
- EC50 (TEAD4.Yap1 interaction [1]; [6]): 13.7 µM
SMILES: C=CC(=O)Nc1ccccc1Nc1cccc(C(F)(F)F)c1 [Example 12]

- EC50 [5]: 244 ± 24 µM
SMILES: Cn1nnc2c(C(N)=O)ncn2c1=O [Temozolomide, temozolomide, reference compound]

SMILES: NC(=O)CI [iodoacetamide, reference compound]
- modification of TEAD4 Cys367Ser mutant (TEAD4 Cys367Ser mutant): no modification of the protein, except for a small adduct that was detected only at 200 μM
- inhibition of TEAD4.Yap1 interaction (TEAD4.Yap1 interaction [1]): unable to inhibit
- adduct formation with TEAD4 (TEAD4 [3]; 5 μM TEAD4, 12.5, 50, 200 μM at 4° C., after 6 h): modified by a single adduct
